Target: SARS-CoV-2 ORF3a (3a), dimer (Severe acute respiratory syndrome coronavirus 2, UniProt P0DTC3)
Experiment: patch-clamp current recording, excised inside-out patches of 3a-proteoliposomes
Type: biochemical
Settings: symmetric 150 mM KCl, pH 7.2, -80 mV, room temperature; soy PC proteoliposomes; flickery block at negative potentials

Chain of SARS-CoV-2 ORF3a (3a), dimer (P0DTC3 whole entry): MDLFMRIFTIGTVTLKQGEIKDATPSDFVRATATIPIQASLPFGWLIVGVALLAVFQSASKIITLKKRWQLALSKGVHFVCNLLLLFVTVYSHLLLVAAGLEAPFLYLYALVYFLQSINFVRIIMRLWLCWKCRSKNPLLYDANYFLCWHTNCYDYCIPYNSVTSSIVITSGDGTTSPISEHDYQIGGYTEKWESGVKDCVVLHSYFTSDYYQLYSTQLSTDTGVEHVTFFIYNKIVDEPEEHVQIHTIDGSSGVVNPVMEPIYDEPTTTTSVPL

Substance: Ruthenium Red
- IC50: 90 ± 10 µM

— paper PMC8772433 (Nature structural & molecular biology, 2021)
